Source: BindingDB's records for doi:10.7270/Q2TX3CTT (Broad Institute, 2010)
Structures can show the parent of a compound that is named as a salt.

target: Glycogen synthase kinase-3 beta (Homo sapiens, UniProt P49841); assay: concentration-response blocking of human GSK3B – biochemical, luminescence, cell-free homogeneous, retest, dose response (AID 434954)
Sequence (P49841 whole entry): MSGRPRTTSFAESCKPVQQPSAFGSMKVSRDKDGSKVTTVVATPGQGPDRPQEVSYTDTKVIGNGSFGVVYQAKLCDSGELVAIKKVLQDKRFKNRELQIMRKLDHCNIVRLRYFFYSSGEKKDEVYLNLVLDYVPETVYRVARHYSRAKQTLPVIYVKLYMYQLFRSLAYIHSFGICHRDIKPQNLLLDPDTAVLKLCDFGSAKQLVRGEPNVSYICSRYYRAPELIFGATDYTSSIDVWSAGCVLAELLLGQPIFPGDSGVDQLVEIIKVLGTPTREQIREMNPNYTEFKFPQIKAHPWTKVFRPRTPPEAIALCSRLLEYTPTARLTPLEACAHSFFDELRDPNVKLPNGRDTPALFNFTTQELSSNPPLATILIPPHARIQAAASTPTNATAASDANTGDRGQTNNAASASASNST

Going from `COc1ccc(OC)c(NCc2nnc(-c3ccccc3)o2)c1` [MLS001208999] to `Cc1ccccc1CSc1nnc(-c2ccncc2)o1` [2-[(2-methylphenyl)methylsulfanyl]-5-pyridin-4-yl-1,3,4-oxadiazole], the EC50 falls from greater than 300 µM to 22.1 µM. The second is the more potent here.

`COc1cc(C=C2SC(Nc3ccc(O)cc3)=NC2=O)cc(OC)c1O` [MLS000715043] and `COc1cc(NC2=CC(=O)CC(C)(C)C2)cc(OC)c1OC` [5,5-dimethyl-3-(3,4,5-trimethoxyanilino)-1-cyclohex-2-enone] cannot be ordered by EC50: greater than 300 µM for the first, greater than 300 µM for the second.

First: CCCC1=Nc2ncnn2C(c2ccco2)C1C(=O)OCC (configuration not stated) [ethyl 7-(furan-2-yl)-5-propyl-1,7-dihydro-[1,2,4]triazolo[1,5-a]pyrimidine-6-carboxylate]
Second: COc1cccc(C2C(C(=O)OCc3ccccc3)C(C)=Nc3ncnn32)c1OC (configuration not stated) [(phenylmethyl) 7-(2,3-dimethoxyphenyl)-5-methyl-1,7-dihydro-[1,2,4]triazolo[1,5-a]pyrimidine-6-carboxylate]
The EC50 of the first is 4.6-fold higher: 17.4 µM for the first, 3.82 µM for the second. The second is the more potent here.

`CC(C(=O)Nc1cccnc1)n1cc([N+](=O)[O-])cn1` (configuration not stated) [MLS000729046] and `Cc1ccnc(NC(=O)c2cccc([N+](=O)[O-])c2C)c1` [2-methyl-N-(4-methylpyridin-2-yl)-3-nitro-benzamide] cannot be ordered by EC50: greater than 300 µM for the first, greater than 300 µM for the second.

First: COc1ccccc1N1CCN(CCCNC(=O)C2CCCN(c3ncnc4c3nc3n4CCCCC3)C2)CC1 (configuration not stated) [N-[3-[4-(2-methoxyphenyl)piperazin-1-yl]propyl]-1-(7,8,9,10-tetrahydro-6H-purino[9,8-a]azepin-4-yl)piperidine-3-carboxamide]
Second: O=C(c1cc(COc2ccc(F)cc2F)on1)N1CCCC(c2ccccc2)C1 (configuration not stated) [[5-[[2,4-bis(fluoranyl)phenoxy]methyl]-1,2-oxazol-3-yl]-(3-phenylpiperidin-1-yl)methanone]
The EC50 of the first is lower: 156 µM for the first, greater than 300 µM for the second. The first is the more potent here.

`O=C(CN(Cc1cccs1)C(=O)CCC(=O)Nc1ccccn1)NCc1ccccc1` [N'-[2-oxo-2-[(phenylmethyl)amino]ethyl]-N-(2-pyridinyl)-N'-(thiophen-2-ylmethyl)butanediamide] and `COCCn1c(SCC(=O)NCc2ccc(F)cc2)nc2ccccc21` [N-[(4-fluorophenyl)methyl]-2-[1-(2-methoxyethyl)benzimidazol-2-yl]sulfanylacetamide] cannot be ordered by EC50: greater than 300 µM for the first, greater than 300 µM for the second.

First: Cn1cc(S(=O)(=O)NCc2ccc(F)cc2)c(=O)n(C)c1=O
Second: O=NCc1ccc(Oc2ccc(F)cc2)c([N+](=O)[O-])c1 [N-[[4-(4-fluorophenoxy)-3-nitrophenyl]methylidene]hydroxylamine]
The EC50 of the first is higher: greater than 300 µM for the first, 23 µM for the second.

First: CC1(C)CC(=O)C2C(=Nc3cc4c(cc3C2c2ccc(F)cc2)OCO4)C1 (configuration not stated) [MLS000528763]
Second: CC1(C)CC(=O)C=C(Nc2cc(-c3ccccc3)n[nH]2)C1
The EC50 of the first is higher: greater than 300 µM for the first, 12.9 µM for the second.

First: CSc1nc(NCc2ccco2)c2c3c(sc2n1)CN(C)CC3 [MLS000082597]
Second: Cc1cccc(Nc2nc(NCc3ccco3)nc(N)c2[N+](=O)[O-])c1 [2-N-(furan-2-ylmethyl)-4-N-(3-methylphenyl)-5-nitropyrimidine-2,4,6-triamine]
The EC50 of the first is 2.1-fold lower: 30.2 µM for the first, 64.4 µM for the second.

Compared with `CC(=O)C(Sc1ccc2nnc(-c3ccc(F)cc3)n2n1)C(C)=O` [SMR000016797], `Cc1ccc(-c2nnc3ccc(SC(C)C(=O)O)nn23)cc1` (configuration not stated) [2-[[3-(4-methylphenyl)-[1,2,4]triazolo[4,3-b]pyridazin-6-yl]sulfanyl]propanoic acid] is lower in EC50: greater than 300 µM for the first, 34.2 µM for the second. The second is the more potent here.

Compared with `COc1ccc(-c2c(C)oc3ccc(C)cc23)cc1` [MLS000562305], `COc1ccc(-c2nn(-c3ccccc3)cc2CN=O)cc1` [3-(4-methoxyphenyl)-1-phenyl-4-pyrazolecarboxaldehyde oxime] is lower in EC50: greater than 300 µM for the first, 0.432 µM for the second. The second is the more potent here.

First: COc1ccc(-c2csc(N3CCOCC3)n2)cc1OC
Second: Nc1nc(Nc2ccccc2)nc(N2CCOCC2)c1[N+](=O)[O-] [SMR000219795]
The EC50 of the first is higher: greater than 300 µM for the first, 20.3 µM for the second.

`COc1ccc(-c2csc(N(CC3CCCO3)C(=O)c3ccccc3)n2)cc1` (configuration not stated) and `COc1ccc(-c2nn(-c3ccccc3)cc2C=NNC(=O)c2ccc(Br)o2)cc1` [5-bromo-N-[[3-(4-methoxyphenyl)-1-phenyl-4-pyrazolyl]methylideneamino]-2-furancarboxamide] cannot be ordered by EC50: greater than 300 µM for the first, greater than 300 µM for the second.

Compared with `CS(=O)(=O)c1nncn1-c1ccccc1` [MLS000062086], `Cc1ccc(C(=O)O/N=C(\N)c2ccccn2)c(Cl)c1` [MLS001206211] is lower in EC50: greater than 300 µM for the first, 26.2 µM for the second. The second is the more potent here.

Going from `Cc1cc(C)c2nc(N(CCN(C)C)C(=O)c3ccc(S(=O)(=O)N(C)CC4CCCO4)cc3)sc2c1` (configuration not stated) [MLS001239556] to `CC(=O)N1CCc2c(sc(NC(=O)CCS(=O)(=O)c3ccc(C)cc3)c2C(N)=O)C1` [6-ethanoyl-2-[3-(4-methylphenyl)sulfonylpropanoylamino]-5,7-dihydro-4H-thieno[2,3-c]pyridine-3-carboxamide], the EC50 falls from greater than 300 µM to 26.2 µM. The second is the more potent here.

`NS(=O)(=O)c1ccc(CCNC(=O)C(=O)c2cn(CC(=O)N3CCCC3)c3ccccc23)cc1` [MLS001235966] and `Cc1cc(C(=O)OCCN2C(=O)c3ccccc3C2=O)c2ccccc2n1` [MLS000565821] cannot be ordered by EC50: greater than 300 µM for the first, greater than 300 µM for the second.

`CN(Cc1ccccc1)S(=O)(=O)c1ccc2c(c1)NC(=O)CC(=O)N2` [N-benzyl-N-methyl-2,4-dioxo-1,5-dihydro-1,5-benzodiazepine-7-sulfonamide] and `CN(C)Cc1c(O)ccc2c(=O)c(-c3ccccc3)c(C(F)(F)F)oc12` cannot be ordered by EC50: greater than 300 µM for the first, greater than 300 µM for the second.

`Cc1ccc(Nc2nc(NCCCN3CCOCC3)nc(N)c2[N+](=O)[O-])cc1` [N4-(4-methylphenyl)-N2-(3-morpholin-4-ylpropyl)-5-nitro-pyrimidine-2,4,6-triamine] and `CN(C)c1nc(N)c([N+](=O)[O-])c(NCC2CCCO2)n1` (configuration not stated) [SMR000436172] cannot be ordered by EC50: greater than 300 µM for the first, greater than 300 µM for the second.

`Cc1cc(NC(=O)CCN2CCC(C)CC2)ccc1Br` [N-(4-bromo-3-methylphenyl)-3-(4-methyl-1-piperidinyl)propanamide;hydrochloride] and `CCn1c(SCC(=O)Nc2ccc(Cl)cc2)nnc1C1CC1` [MLS000115911] cannot be ordered by EC50: greater than 300 µM for the first, greater than 300 µM for the second.

First: CC(=O)Nc1c(N)c2ccccc2oc1=O [N-(4-amino-2-oxo-1-benzopyran-3-yl)acetamide]
Second: CC(=O)Nc1cccc2c1C(=O)NC2=O [N-(1,3-dioxoisoindol-4-yl)acetamide]
The EC50 of the first is higher: greater than 300 µM for the first, 31.7 µM for the second. The second is the more potent here.

First: Fc1ccc(CNc2nc(-c3cccnc3)nc3ccccc23)cc1 [N-[(4-fluorophenyl)methyl]-2-(3-pyridinyl)-4-quinazolinamine]
Second: Nc1nonc1-n1nnc(C(=O)NN=Cc2ccccn2)c1-c1ccccc1 [1-(4-azanyl-1,2,5-oxadiazol-3-yl)-5-phenyl-N-(pyridin-2-ylmethylideneamino)-1,2,3-triazole-4-carboxamide]
The EC50 of the first is higher: greater than 300 µM for the first, 65.6 µM for the second.

`CCOC(=O)c1nnn(-c2nonc2N)c1CN(CC)CC` [ethyl 1-(4-amino-1,2,5-oxadiazol-3-yl)-5-(diethylaminomethyl)triazole-4-carboxylate] and `CCOC(=O)COC(=O)c1ccc(O)cc1` [(2-ethoxy-2-oxoethyl) 4-hydroxybenzoate] cannot be ordered by EC50: greater than 300 µM for the first, greater than 300 µM for the second.

`Cc1csc(NC(=O)CN2C(=O)c3ccccc3C2=O)c1C(N)=O` [2-[[2-(1,3-dioxo-2-isoindolyl)-1-oxoethyl]amino]-4-methyl-3-thiophenecarboxamide] and `Cc1nn(Cc2ccc(Cl)c(Cl)c2)c(C)c1NC(=O)c1noc2c1CCCCC2` [SMR000023628] cannot be ordered by EC50: greater than 300 µM for the first, greater than 300 µM for the second.

`CN1CCN(c2cc([N+](=O)[O-])ccc2Cl)CC1` was tested, and the EC50 was greater than 300 µM.
